Experimental findings from US6221914A, “Sulfonamide bridging compounds that inhibit tryptase activity” (Array Biopharma Inc., priority 1998, dated 2001) are described below.

Bounds are passed on as bounds.

Common to all, as to assay type: biochemical
Experiment [1] addresses T1, Bovine pancreatic Trypsin (Bos taurus, UniProt P00760).
T1 construct: from tissue; host or cells: bovine pancreas
T1 sequence (P00760 24-246): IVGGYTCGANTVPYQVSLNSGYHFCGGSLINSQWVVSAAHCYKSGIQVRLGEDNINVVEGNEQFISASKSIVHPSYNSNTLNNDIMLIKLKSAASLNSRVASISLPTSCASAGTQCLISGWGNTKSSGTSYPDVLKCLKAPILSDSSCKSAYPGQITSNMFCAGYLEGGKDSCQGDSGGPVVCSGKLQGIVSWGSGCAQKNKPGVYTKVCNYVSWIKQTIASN
Description: Ki determination, bovine pancreatic trypsin (N-a-Benzoyl-L-Arg-pNA). The following applies: 50 mM Tris-HCl, pH 8.2, 20 mM CaCl2; read-out: Experimentally Determined Ki, Trypsin. The procedure:
(§1) Protease inhibition was assayed according to published procedures with minor modifications using various proteases and specific chromogenic peptide p-nitroanilide substrates. Assays were performed in Costar ultra-low cluster 96-well microtiter plate (Costar Corning Corp., Cambridge Mass.). Each protease was incubated with various concentrations of the test compound for 15 min. at 37° C. or as otherwise indicated, in specific assay buffer, and the residual activity was then measured by addition of the substrate. p-Nitroaniline produced by the proteolysis was determined by measuring the change in absorbance at 405 nm on a SpectraMAX 340 plate reader (Molecular devices, Sunnyvale, Calif.).
(§2) 1. The inhibition constant, Ki is calculated from individual data points using the equation for a tight-binding inhibitor (See Beith, "Proteinase Inhibitors-Proceedings of 2nd Int. Res. Conference", Fritz, et al. eds, New York, p.4463-4469 (1974)):
(§3) vi /vo [((Ki '+[I]+[E]o)^2 -4 [I]o
(§4) [E]o)^1/2 (Ki '+[I]o -[E]o)]/2[E]o
(§5) where Ki ' is apparent inhibition constant; vi and vo are the inhibited and uninhibited rates, respectively; [I]o and [E]o are the total concentrations of inhibitor and enzyme, respectively.
(§6) [note: [E]o is determined by active site titration of enzyme]
(§7) The Ki values are obtained by correcting Ki ' values for the effect of substrate concentration according to: [formula]
(§8) 2. Other inhibition data (Ki >>[E]o), the Ki is calculated from using the equations for a competitive inhibitor: [formula]
Bovine pancreatic Trypsin (TPCK-treated) activity was determined by using N-a-Benzoyl-L-Arg-pNA in 50 mM Tris-HCl, pH 8.2, 20 mM CaCl2 (See Somorin, et al., J. Biochem. 85, 157-162 (1979)).
(§9) The inhibition constant (Ki) of the test compounds against each proteolytic enzyme was determined according to Zitnik et al., Biochem. Biophys. Res. Commun. 232, 687-697 (1997)).

Experiment [2] concerns the target T2, Human plasma thrombin (Homo sapiens, UniProt P00734).
T2 construct: from tissue; host or cells: human plasma
Description: Ki determination, human plasma thrombin (H-D-Phe-Pip-Arg-pNA). The conditions noted are these: 50 mM Tris-HCl, pH 8.3, 100 mM NaCl, 1% BSA; read-out: Experimentally Determined Ki, Thrombin. The procedure: as §1, §2, §3, §4, §5, §6, §7, §8
Human plasma thrombin activity was determined by using H-D-Phe-Pip-Arg-pNA in 50 mM Tris-HCl, pH 8.3, 100 mM NaCl, 1% BSA (See Lottenberg, et al. Meth. Enzymol. 80, 341-361 (1981)).
as §9

The target in experiment [3] is T3, Human plasma factor Xa (Homo sapiens, UniProt P00742).
T3 construct: from tissue; host or cells: human plasma
T3 sequence (P00742 235-488 limits assumed): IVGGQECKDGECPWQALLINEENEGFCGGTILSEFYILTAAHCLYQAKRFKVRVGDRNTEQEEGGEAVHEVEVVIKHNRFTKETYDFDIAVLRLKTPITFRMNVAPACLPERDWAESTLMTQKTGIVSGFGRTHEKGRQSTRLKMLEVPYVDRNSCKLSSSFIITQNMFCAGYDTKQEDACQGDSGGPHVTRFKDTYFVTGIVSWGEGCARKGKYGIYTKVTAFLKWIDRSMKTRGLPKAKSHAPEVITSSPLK
T3 sequence (P00742 41-179 partner limits assumed): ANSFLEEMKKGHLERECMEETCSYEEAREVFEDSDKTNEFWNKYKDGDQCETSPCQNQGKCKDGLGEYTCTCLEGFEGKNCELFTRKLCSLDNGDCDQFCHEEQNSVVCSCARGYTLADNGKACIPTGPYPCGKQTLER
Description: Ki determination, human plasma factor Xa (N-Benzoyl-Ile-Glu-Gly-Arg-pNA). The conditions noted are these: 50 mM Tris-HCl, pH 7.8, 200 mM NaCl, 0.05% BSA; read-out: Experimentally Determined Ki, Factor Xa. Here is the method:
as §1, §2, §3, §4, §5, §6, §7, §8
Human plasma factor Xa activity was determined by using N-Benzoyl-Ile-Glu-Gly-Arg-pNA in 50 mM Tris-HCl, pH 7.8, 200 mM NaCl, 0.05% BSA (See Lottenberg, et al. Meth. Enzymol. 80, 341-361 (1981)).
as §9

The target in experiment [4] is r-tissue kallikrein (Homo sapiens, UniProt P06870). Description: Ki determination, r-tissue kallikrein (DL-Val-Leu-Arg-pNA). The conditions noted are these: 50 mM Tris-HCl, pH 7.8, 200 mM NaCl, 0.05% BSA; read-out: Experimentally Determined Ki, Tissue Kallikrein. The procedure: as §1, §2, §3, §4, §5, §6, §7, §8
Sequence of r-tissue kallikrein (P06870 25-262): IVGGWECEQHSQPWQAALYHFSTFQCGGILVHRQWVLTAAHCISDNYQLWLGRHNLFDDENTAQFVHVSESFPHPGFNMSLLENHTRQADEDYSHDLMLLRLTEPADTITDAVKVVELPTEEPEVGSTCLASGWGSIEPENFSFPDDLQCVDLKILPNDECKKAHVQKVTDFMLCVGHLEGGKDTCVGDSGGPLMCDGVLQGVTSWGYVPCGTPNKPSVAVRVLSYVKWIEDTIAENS
(§10) I. Human Plasma and r-Tissue Kallikrein
(§11) Human plasma and r-tissue kallikrein activity were determined in 50 mM Tris-HCl, pH 7.8, 200 mM NaCl, 0.05% BSA by using H-D-Prolyl-Phe-Arg-pNA and DL-Val-Leu-Arg-pNA, respectively (See Lottenberg, et al., Meth. Enzymol. 80, 341-361 (1981)).
as §9

In experiment [5] the target is T4, Human plasma kallikrein (Homo sapiens, UniProt P03952).
T4 construct: from tissue; host or cells: human plasma
T4 sequence (P03952 391-638 limits assumed): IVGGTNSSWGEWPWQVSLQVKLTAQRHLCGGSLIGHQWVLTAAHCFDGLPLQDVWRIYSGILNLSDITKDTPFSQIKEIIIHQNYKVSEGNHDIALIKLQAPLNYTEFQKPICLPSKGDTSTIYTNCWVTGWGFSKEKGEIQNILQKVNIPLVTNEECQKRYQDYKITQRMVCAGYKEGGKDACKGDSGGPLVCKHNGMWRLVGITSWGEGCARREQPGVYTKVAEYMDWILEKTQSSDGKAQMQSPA
T4 sequence (P03952 20-390 partner limits assumed): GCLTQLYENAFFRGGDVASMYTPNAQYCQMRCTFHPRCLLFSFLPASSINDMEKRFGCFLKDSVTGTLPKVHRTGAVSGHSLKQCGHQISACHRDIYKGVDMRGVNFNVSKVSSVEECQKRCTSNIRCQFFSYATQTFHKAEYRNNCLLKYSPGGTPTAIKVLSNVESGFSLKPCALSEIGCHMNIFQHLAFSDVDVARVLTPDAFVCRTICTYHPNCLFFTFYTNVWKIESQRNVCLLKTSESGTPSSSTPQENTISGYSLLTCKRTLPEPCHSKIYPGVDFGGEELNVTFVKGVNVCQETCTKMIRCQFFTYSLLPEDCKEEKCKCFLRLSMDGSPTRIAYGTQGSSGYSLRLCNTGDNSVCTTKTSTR
The experiment is described as follows: Ki determination, human plasma kallikrein (H-D-Prolyl-Phe-Arg-pNA). The conditions noted are these: 50 mM Tris-HCl, pH 7.8, 200 mM NaCl, 0.05% BSA; read-out: Experimentally Determined Ki, Plasma Kallikrein. Here is the method: as §1, §2, §3, §4, §5, §6, §7, §8, §10, §11, §9

Experiment [6] concerns the target T5, Human plasma plasmin (Homo sapiens, UniProt P00747).
T5 construct: from tissue; host or cells: human plasma
Description: Ki determination, human plasma plasmin (Tosyl-Gly-Pro-Lys-pNA). The following applies: 100 mM Tris-HCl, pH 7.4, 100 mM NaCl, 0.05% Triton X-100; read-out: Experimentally Determined Ki, Plasmin. The procedure:
as §1, §2, §3, §4, §5, §6, §7, §8
Human plasma plasmin activity was determined by using Tosyl-Gly-Pro-Lys-pNAin 100 mM Tris-HCl, pH 7.4, 100 mM NaCl, 0.05% Triton X-100 (See Lottenberg, et al., Meth. Enzymol. 80, 341-361 (1981)).
as §9

Experiment [7] concerns the target T6, Human Neutrophil Cathepsin G (Homo sapiens, UniProt P08311).
T6 construct: from tissue; host or cells: human neutrophils
T6 sequence (P08311 21-255): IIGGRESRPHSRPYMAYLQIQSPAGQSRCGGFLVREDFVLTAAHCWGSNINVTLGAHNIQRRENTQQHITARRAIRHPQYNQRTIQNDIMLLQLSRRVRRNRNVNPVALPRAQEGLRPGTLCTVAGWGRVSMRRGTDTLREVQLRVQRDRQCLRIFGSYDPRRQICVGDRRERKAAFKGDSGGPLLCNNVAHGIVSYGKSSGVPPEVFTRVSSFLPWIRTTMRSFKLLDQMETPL
Description: Ki determination, human neutrophil cathepsin G (N-Suc-Ala-Ala-Pro-Phe-pNA). The conditions noted are these: 625 mM Tris-HCl, pH 7.5, 2.5 mM MgCl2, 0.125% Brij 35; read-out: Experimentally Determined Ki, Cathepsin G. Here is the method: as §1, §2, §3, §4, §5, §6, §7, §8
Human Neutrophil Cathepsin G activity was determined by using N-Suc-Ala-Ala-Pro-Phe-pNA in 625 mM Tris-HCl, pH 7.5, 2.5 mM MgCl2, 0.125% Brij 35 (See Groutas et al., Arch. Biochem. Biophys. 294, 144-146 (1992)).
as §9

Experiment [8] concerns the target T7, Bovine Pancreatic Chymotrypsin (Bos taurus, UniProt P00766).
T7 construct: from tissue; host or cells: bovine pancreas
Description: Ki determination, bovine pancreatic chymotrypsin (N-Suc-Ala-Ala-Pro-Phe-pNA). The following applies: 100 mM Tris-HCl, pH 7.8, 10 mM CaCl2; read-out: Experimentally Determined Ki, Chymotrypsin. Here is the method:
as §1, §2, §3, §4, §5, §6, §7, §8
Bovine Pancreatic Chymotrypsin activity was determined by using N-Suc-Ala-Ala-Pro-Phe-pNA in 100 mM Tris-HCl, pH 7.8, 10 mM CaCl2 (See Delmar, et al., J. Biochem. 85, 157-162 (1979)).
as §9

T5 sequence (P00747 581-810 limits assumed): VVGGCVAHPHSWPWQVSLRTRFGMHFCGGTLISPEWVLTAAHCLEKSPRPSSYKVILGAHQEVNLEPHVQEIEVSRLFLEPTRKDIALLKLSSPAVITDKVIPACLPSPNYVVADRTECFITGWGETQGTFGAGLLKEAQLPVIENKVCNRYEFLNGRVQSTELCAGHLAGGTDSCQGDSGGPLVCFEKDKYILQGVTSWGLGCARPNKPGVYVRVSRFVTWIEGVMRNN
T5 sequence (P00747 97-580 partner limits assumed): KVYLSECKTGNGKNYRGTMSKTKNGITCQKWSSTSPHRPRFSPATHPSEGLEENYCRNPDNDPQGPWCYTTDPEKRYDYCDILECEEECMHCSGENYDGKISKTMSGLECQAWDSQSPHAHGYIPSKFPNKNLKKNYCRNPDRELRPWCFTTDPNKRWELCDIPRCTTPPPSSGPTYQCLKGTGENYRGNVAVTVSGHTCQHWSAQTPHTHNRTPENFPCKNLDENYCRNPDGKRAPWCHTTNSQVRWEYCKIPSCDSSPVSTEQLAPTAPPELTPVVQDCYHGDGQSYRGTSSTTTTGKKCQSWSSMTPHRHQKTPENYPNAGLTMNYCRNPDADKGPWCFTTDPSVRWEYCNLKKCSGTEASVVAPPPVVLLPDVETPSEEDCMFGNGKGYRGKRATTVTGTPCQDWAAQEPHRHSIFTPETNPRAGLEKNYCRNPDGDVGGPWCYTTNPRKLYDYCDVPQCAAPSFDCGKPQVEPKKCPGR

Usually Ki stands for the dissociation constant of the complex between target and ligand, obtained from inhibition or displacement. Regarding `N=C(N)c1cccc(S(=O)(=O)NCc2ccc(OCCCCCOc3ccc(CNS(=O)(=O)c4cccc(C(=N)N)c4)cc3)cc2)c1` [Example 41, 1,5-Bis-{4-[(3-carbamimidoyl-benzenesulfonylamino)-methyl]-phenoxy}-pentane], the Ki in experiment [1] is 2.5 µM; in experiment [2], above 100 µM; in experiment [3], 6.4 µM; in experiment [4], above 100 µM; in experiment [5] it was 18 µM; in experiment [6], 0.93 µM. For the same compound, the inhibition constant (Ki) in experiment [7] and in experiment [8] was above 100 µM throughout.

In the case of `N=C(N)c1cccc(S(=O)(=O)NCc2ccc(OCCCCCCOc3ccc(CNS(=O)(=O)c4cccc(C(=N)N)c4)cc3)cc2)c1` [Example 43, 1,6-Bis-{4-[(3-carbamimidoyl-benzenesulfonylamino)-methyl]-phenoxy}-hexane], the inhibition constant Ki is 3.6 µM in experiment [1]; above 100 µM in experiment [2]; 15.6 µM in experiment [3]; above 100 µM in experiment [4]; above 100 µM in experiment [5]; 2.6 µM in experiment [6]. Moreover, the Ki in experiment [7] is above 100 µM; in experiment [8], 20 µM.

Regarding `N=C(N)c1cccc(S(=O)(=O)NCc2ccc(OCCCCCCCOc3ccc(CNS(=O)(=O)c4cccc(C(=N)N)c4)cc3)cc2)c1` [Example 45, 1,7-Bis-{4-[(3-carbamimidoyl-benzenesulfonylamino)-methyl]-phenoxy}-heptane], the Ki in experiment [1] is 12 µM; in experiment [2], above 100 µM; in experiment [3], 7.6 µM; in experiment [4], above 100 µM; in experiment [5], 34 µM; in experiment [6], 10 µM. Besides, the Ki in experiment [7] and in experiment [8] was above 100 µM throughout.

Consider `N=C(N)c1cccc(S(=O)(=O)NCc2ccc(OCCCCOc3ccc(CNS(=O)(=O)c4cccc(C(=N)N)c4)cc3)cc2)c1` [Example 47, 1,4-Bis-{4-[(3-carbamimidoyl-benzenesulfonylamino)-methyl]-phenoxy}-butane], for which the Ki in experiment [1] is 1.8 µM; in experiment [2], above 100 µM; in experiment [3] it was 2.9 µM; in experiment [4], above 100 µM; in experiment [5] it was 2.5 µM; in experiment [6], 0.06 µM. The Ki in experiment [7] and in experiment [8] was above 100 µM in each case.

Take `N=C(N)c1cccc(S(=O)(=O)NCc2ccc(OCCCOc3ccc(CNS(=O)(=O)c4cccc(C(=N)N)c4)cc3)cc2)c1` [Example 49, 3,1-Bis-{4-[(3-carbamimidoyl-benzenesulfonylamino)-methyl]-phenoxy}-propane]: the inhibition constant (Ki) is 2.8 µM in experiment [1]; above 100 µM in experiment [2]; 7.4 µM in experiment [3]; above 100 µM in experiment [4]; 6 µM in experiment [5]; 0.74 µM in experiment [6]. In addition, the Ki in experiment [7] and in experiment [8] was above 100 µM each time.

In the case of `N=C(N)c1ccc(S(=O)(=O)NCc2ccc(OCCCOc3ccc(CNS(=O)(=O)c4ccc(C(=N)N)cc4)cc3)cc2)cc1` [Example 50, 1,3-Bis-{4-[(4-carbamimidoyl-benzenesulfonylamino)-methyl]-phenoxy}-propane], the Ki in experiment [2] is above 100 µM; in experiment [3] it was above 100 µM; in experiment [4], above 100 µM; in experiment [5] it was above 100 µM; in experiment [6], 6.1 µM; in experiment [7] it was above 100 µM. For the same compound, in experiment [8], the Ki worked out at 6.3 µM.

`N=C(N)c1ccc(C(=O)NCc2ccc(OCCCCCCOc3ccc(CNC(=O)c4ccc(C(=N)N)cc4)cc3)cc2)cc1` [Example 56, 1,6-Bis-{4-[(4-carbamimidoyl-benzenecarbonylamino)-methyl]-phenoxy}-hexane]: the Ki in experiment [1] is 1.3 µM; in experiment [2] it was above 100 µM; in experiment [4] it was above 100 µM; in experiment [6], 1.6 µM; in experiment [7], above 100 µM; in experiment [8] it was above 100 µM.

In the case of `N=C(N)c1cccc(C(=O)NCc2ccc(OCCCCCCOc3ccc(CNC(=O)c4cccc(C(=N)N)c4)cc3)cc2)c1` [Example 57, 1,6-Bis-{4-[(3-carbamimidoyl-benzenecarbonylamino)-methyl]-phenoxy}-hexane], the Ki in experiment [1] was 1.7 µM; in experiment [2], above 100 µM; in experiment [4], above 100 µM; in experiment [6] it was 10.7 µM; in experiment [7], above 100 µM; in experiment [8], above 100 µM.

As to `N=C(N)c1cccc(C(=O)NCc2ccc(OCCCOc3ccc(CNC(=O)c4cccc(C(=N)N)c4)cc3)cc2)c1` [Example 63, 1,3-Bis-{4-[(3-carbamimidoyl-benzoylamino)-methyl]-phenoxy}-propane], the Ki was 2.4 µM in experiment [1]; above 100 µM in experiment [2]; above 100 µM in experiment [4]; 28 µM in experiment [6]; above 100 µM in experiment [7]; above 100 µM in experiment [8].

`N=C(N)c1ccc(C(=O)NCc2ccc(COCc3ccc(CNC(=O)c4ccc(C(=N)N)cc4)cc3)cc2)cc1` [Example 66, 1,3-Bis-{4-[(4-carbamimidoyl-benzenecarbonylamino)-methyl]-phenyl}-2-oxapropane]: the Ki was 0.51 µM in experiment [1]; above 100 µM in experiment [2]; 25.7 µM in experiment [3]; above 100 µM in experiment [4]; 0.7 µM in experiment [5]; 10.1 µM in experiment [6]. In addition, the Ki in experiment [8] is above 100 µM.
